# According to patent US20140357655A1, “SPIROINDOLINE DERIVATIVES AS GONADOTROPIN- RELEASING HORMONE RECEPTOR ANTAGONISTS” (Bayer Intellectual Property GmbH, priority 2012, published 2014):
# Target: T1, human GnRH receptor (Homo sapiens, UniProt P30968)
# T1 sequence (P30968 1-328): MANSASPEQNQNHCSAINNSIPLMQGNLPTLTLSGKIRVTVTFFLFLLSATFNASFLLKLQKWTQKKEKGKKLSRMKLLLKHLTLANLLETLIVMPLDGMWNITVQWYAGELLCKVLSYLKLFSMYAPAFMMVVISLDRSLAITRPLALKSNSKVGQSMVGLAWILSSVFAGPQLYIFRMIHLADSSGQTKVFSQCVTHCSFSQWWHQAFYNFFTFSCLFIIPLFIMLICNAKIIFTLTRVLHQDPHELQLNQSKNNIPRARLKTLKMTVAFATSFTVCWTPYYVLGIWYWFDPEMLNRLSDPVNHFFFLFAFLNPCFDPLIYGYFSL
# Experiment: IP-One HTRF assay with buserelin (at EC80) stimulation
# Format: cell-based
# Conditions: CHO cells stably expressing human GnRH receptor, read-out: Potency in IP-One HTRF assay, given as IC50
# Text: 2.3. IP-One HTRF® Assay By using homogenous time-resolved fluorescence resonance energy transfer (HTRF), the generation of one component of the GnRH—R signalling cascade can be measured. After stimulation of CHO cells stably expressing human GnRH receptor (established by Prof. Thomas Gudermann, currently University of Marburg, Germany; supplied as frozen cell aliquots by Cell Culture Services, Hamburg, Germany) with the EC80 of the GnRH agonist buserelin, Gq protein-coupled receptor signalling cascade is activated resulting in PLC-dependent cleavage of PIP2 to Inositol-1,4,5-triphosphate (IP3) and Diacylglycerol. The second messenger IP3 is degraded intracellularly to myo-inositol. Inhibition of the final degradation step from Inositol-1-phosphate (IP1) to myo-inositol by addition of lithium chloride leads to accumulation of IP1 in the cells. In cell lysates, IP1 can be detected via an antibody-based HTRF detection technology, where IP1 can displace the FRET acceptor IP1-d2 from binding by Terbium-labelled anti-IP1 antibody as donor resulting in a signal decrease. Compounds were tested for their capability of inhibiting GnRH—R activation by buserelin. For all IP-One HTRF® assays reagents of Cisbio Bioassays (IP-One Tb Jumbo kit, #62IPAPEJ; Cisbio Bioassays, Bagnols sur Cèze Cedex, France) were used.
# For the assay, frozen cell aliquots were thawed and a cell suspension (3.33×10^6 cells/mL) containing IP1-d2 (dilution 1:40) was prepared and incubated at 37° C. After 1 h 3 μl of the cell suspension were added to 50 nl of a 100-fold concentrated solution of the test compound in DMSO pre-dispensed in a well of a white low-volume 384-well microtiter plate (Greiner Bio-One, Frickenhausen, Germany). […] Plates were incubated for 1 h at 37° C. and 5% carbon dioxide before the cells were lysed by adding 3 μl Terbium-labelled anti-IP1 antibody (1:40) diluted in Conjugate & Lysis buffer as supplied with the kit. After an incubation for 1 h at 22° C. to enable complete cell lysis and antibody binding to free IP1 or IP1-d2, plates were measured in an HTRF reader, e.g. a RUBYstar, PHERAstar (both BMG Labtechnologies, Offenburg, Germany) or a Viewlux (PerkinElmer LAS, Rodgau-Jügesheim, Germany).
# From the fluorescence emissions at 665 nm (FRET) and at 620 nm (background signal of Terbium-antibody), the ratio (emission at 665 nm divided by emission at 620 nm) was calculated and the data were normalized (reaction without test compound=0% inhibition; all other assay components except agonist=100% inhibition). On the same microtiter plate, compounds were tested at 10 different concentrations in the range of 20 μM to 1 nM (20 μM, 6.7 μM, 2.2 μM, 0.74 μM, 0.25 μM, 82 nM, 27 nM, 9.2 nM, 3.1 nM and 1 nM; dilution series prepared before the assay at the level of the 100-fold conc. stock solutions by serial 1:3 dilutions in 100% DMSO) in duplicate values for each concentration. By using an in-house software, the IC50 values were calculated by a 4 parameter fit.
row,SMILES,IC50 [nM]
1,"O=C(NCc1ccccc1C(F)F)c1ccc2c(c1)C1(CCS(=O)(=O)CC1)C(C1CC1)N2S(=O)(=O)c1ccc(F)cc1 (stereo not drawn) [Example 68, 2-cyclopropyl-N-[2-(difluoromethyl)benzyl]-1-[(4-fluorophenyl)sulfonyl]-1,2,2′,3′,5′,6′-hexahydrospiro[indole-3,4′-thiopyran]-5-carboxamide 1′,1′-dioxide]",4.5
2,"O=C(O)c1cccc(NC(=O)c2ccc3c(c2)C2(CCS(=O)(=O)CC2)C(C2CC2)N3S(=O)(=O)c2cccc(OC(F)F)c2)c1 (single isomer, unassigned) [Example 90.2, 3-{[(2-cyclopropyl-1-{[3-(difluoromethoxy)phenyl]sulfonyl}-1′,1′-dioxido-1,2,2′,3′,5′,6′-hexahydrospiro[indole-3,4′-thiopyran]-5-yl)carbonyl]amino}benzoic acid]",2860
3,"N#Cc1cccc(S(=O)(=O)N2c3ccc(C(=O)NCc4ccccc4Cl)cc3C3(CCS(=O)(=O)CC3)C2C2CC2)c1 (single isomer, unassigned) [Example 76.1, N-(2-chlorobenzyl)-1-[(3-cyanophenyl)sulfonyl]-2-cyclopropyl-1,2,2′,3′,5′,6′-hexahydrospiro[indole-3,4′-thiopyran]-5-carboxamide 1′,1′-dioxide]",21
4,"O=C(NCc1ccccc1Cl)c1ccc2c(c1)C1(CCSCC1)C(C1CC1)N2S(=O)(=O)c1ccc(F)cc1 (single isomer, unassigned) [Example 12.1, N-(2-Chlorobenzyl)-2-cyclopropyl-1-[(4-fluorophenyl)sulfonyl]-1,2,2′,3′,5′,6′-hexahydrospiro[indole-3,4′-thiopyran]-5-carboxamide]",178
5,"COc1cccc(S(=O)(=O)N2c3ccc(C(=O)NCc4ncccc4C)cc3C3(CCS(=O)(=O)CC3)C2C2CC2)c1 (stereo not drawn) [Example 45, 2-cyclopropyl-1-[(3-methoxyphenyl)sulfonyl]-N-[(3-methylpyridin-2-yl)methyl]-1,2,2′,3′,5′,6′-hexahydrospiro[indole-3,4′-thiopyran]-5-carboxamide 1′,1′-dioxide]",299
6,"O=C(Nc1ccon1)c1ccc2c(c1)C1(CCS(=O)(=O)CC1)C(C1CC1)N2S(=O)(=O)c1ccc(F)cc1 (single isomer, unassigned) [Example 63.1, 2-cyclopropyl-1-[(4-fluorophenyl)sulfonyl]-N-(1,2-oxazol-3-yl)-1,2,2′,3′,5′,6′-hexahydrospiro[indole-3,4′-thiopyran]-5-carboxamide 1′,1′-dioxide]",88
7,"NC(=O)c1ccc(S(=O)(=O)N2c3ccc(C(=O)Nc4cccc(S(=O)(=O)Nc5nccs5)c4)cc3C3(CCS(=O)(=O)CC3)C2C2CC2)cc1 (stereo not drawn) [Example 96, 1-[(4-carbamoylphenyl)sulfonyl]-2-cyclopropyl-N-[3-(1,3-thiazol-2-ylsulfamoyl)phenyl]-1,2,2′,3′,5′,6′-hexahydrospiro[indole-3,4′-thiopyran]-5-carboxamide 1′,1′-dioxide]",484
8,"Cc1ccc(NC(=O)c2ccc3c(c2)C2(CCS(=O)(=O)CC2)C(C2CC2)N3S(=O)(=O)c2ccc(F)cc2)nc1 (stereo not drawn) [Example 29, 2-cyclopropyl-1-[(4-fluorophenyl)sulfonyl]-N-(5-methylpyridin-2-yl)-1,2,2′,3′,5′,6′-hexahydrospiro[indole-3,4′-thiopyran]-5-carboxamide 1′,1′-dioxide]",> 20000
9,"O=C(NC1(c2ccccc2Cl)CC1)c1ccc2c(c1)C1(CCS(=O)(=O)CC1)C(C1CC1)N2S(=O)(=O)c1ccc(F)cc1 (stereo not drawn) [Example 21, N-[1-(2-chlorophenyl)cyclopropyl]-2-cyclopropyl-1-[(4-fluorophenyl)sulfonyl]-1,2,2′,3′,5′,6′-hexahydrospiro[indole-3,4′-thiopyran]-5-carboxamide 1′,1′-dioxide]",3040
10,"COC(=O)c1cccc(NC(=O)c2ccc3c(c2)C2(CCS(=O)(=O)CC2)C(C2CC2)N3S(=O)(=O)c2ccc(F)cc2)c1 (single isomer, unassigned) [Example 34.1, methyl 3-[({2-cyclopropyl-1-[(4-fluorophenyl)sulfonyl]-1′,1′-dioxido-1,2,2′,3′,5′,6′-hexahydrospiro[indole-3,4′-thiopyran]-5-yl}carbonyl)amino]benzoate]",38
11,"COc1cccc(S(=O)(=O)N2c3ccc(C(=O)Nc4cccc(S(N)(=O)=O)c4)cc3C3(CCS(=O)(=O)CC3)C2C2CC2)c1 (single isomer, unassigned) [Example 42.1, 2-cyclopropyl-1-[(3-methoxyphenyl)sulfonyl]-N-(3-sulfamoylphenyl)-1,2,2′,3′,5′,6′-hexahydrospiro[indole-3,4′-thiopyran]-5-carboxamide 1′,1′-dioxide]",437
12,"NS(=O)(=O)c1cccc(NC(=O)c2ccc3c(c2)C2(CCS(=O)(=O)CC2)C(C2CC2)N3S(=O)(=O)c2ccc(F)cc2)c1 (single isomer, unassigned) [Example 30.1, 2-cyclopropyl-1-[(4-fluorophenyl)sulfonyl]-N-(3-sulfamoylphenyl)-1,2,2′,3′,5′,6′-hexahydrospiro[indole-3,4′-thiopyran]-5-carboxamide 1′,1′-dioxide]",441
13,"COc1cccc(S(=O)(=O)N2c3ccc(C(=O)NCc4ncccc4Cl)cc3C3(CCS(=O)(=O)CC3)C2C2CC2)c1 (stereo not drawn) [Example 41, N-[(3-chloropyridin-2-yl)methyl]-2-cyclopropyl-1-[(3-methoxyphenyl)sulfonyl]-1,2,2′,3′,5′,6′-hexahydrospiro[indole-3,4′-thiopyran]-5-carboxamide 1′,1′-dioxide]",234
14,"CC1N(S(=O)(=O)c2ccc(F)cc2)c2ccc(C(=O)NCc3ncccc3Cl)cc2C12CCOCC2 (racemic) [Example 1, N-[(3-Chloropyridin-2-yl)methyl]-1-[(4-fluorophenyl)sulfonyl]-2-methyl-1,2,2′,3′,5′,6′-hexahydrospiro[indole-3,4′-pyran]-5-carboxamide]",584
15,"CN(C)S(=O)(=O)c1cccc(NC(=O)c2ccc3c(c2)C2(CCS(=O)(=O)CC2)C(C2CC2)N3S(=O)(=O)c2ccc(F)cc2)c1 (single isomer, unassigned) [Example 37.1, 2-cyclopropyl-N-[3-(N,N-dimethylsulfamoyl)phenyl]-1-[(4-fluorophenyl)sulfonyl]-1,2,2′,3′,5′,6′-hexahydrospiro[indole-3,4′-thiopyran]-5-carboxamide 1′,1′-dioxide]",2130
16,"N#Cc1cccc(S(=O)(=O)N2c3ccc(C(=O)Nc4cncc(Cl)c4)cc3C3(CCS(=O)(=O)CC3)C2C2CC2)c1 (single isomer, unassigned) [Example 77.2, N-(5-chloropyridin-3-yl)-1-[(3-cyanophenyl)sulfonyl]-2-cyclopropyl-1,2,2′,3′,5′,6′-hexahydrospiro[indole-3,4′-thiopyran]-5-carboxamide 1′,1′-dioxide]",963
17,"N#Cc1ccc(S(=O)(=O)N2c3ccc(C(=O)Nc4ncco4)cc3C3(CCS(=O)(=O)CC3)C2C2CC2)cc1 (stereo not drawn) [Example 73, 1-[(4-cyanophenyl)sulfonyl]-2-cyclopropyl-N-(1,3-oxazol-2-yl)-1,2,2′,3′,5′,6′-hexahydrospiro[indole-3,4′-thiopyran]-5-carboxamide 1′,1′-dioxide]",130
18,"O=C(NCc1ccccc1Cl)c1ccc2c(c1)C1(CCSCC1)C(C1CC1)N2S(=O)(=O)c1ccc(F)cc1 (racemic) [Example 12, N-(2-Chlorobenzyl)-2-cyclopropyl-1-[(4-fluorophenyl)sulfonyl]-1,2,2′,3′,5′,6′-hexahydrospiro[indole-3,4′-thiopyran]-5-carboxamide]",186
